Source: US10220039B2, “Method of treating polycystic kidney diseases with ceramide derivatives” (Genzyme Corporation, priority 2007, dated 2019)

System: jck mice
Experiment: jck mouse model of polycystic kidney disease, 0.225% Compound A in feed, 26-64 days of age
Format: in vivo
Details: for K/BW ratio (%) / Body weight / BUN / Cystic volume (% BW): treated, 26-64 days of age; for K/BW ratio (%) / Body weight: 0.225% in feed ad libitum; for Body weight: at sacrifice; for BUN / Cystic volume (% BW): 0.225% in feed; for Cystic volume (% BW): percentage cystic area multiplied by kidney/body weight ratio
Method: jck mice was administered Compound A ad libitum in feed (0.225% Compound A mixed with a standard diet chow in powdered format) from 26-64 days of age. Control jck mice were fed a control powdered diet from 26-64 days of age. At 63 days of age, animals were transferred to metabolic cages for 24 hour urine collection. At 64 days of age, animals were sacrificed by CO2 administration. Blood was collected by heart puncture for serum isolation. Kidneys were isolated and bisected; half of each kidney was fixed in 4% paraformaldehyde in PBS overnight for paraffin embedding and H&E staining.
Total body weight and kidney weight were determined at sacrifice.
Cyst volume was measured by quantitating the percentage of cystic area in histological sections of kidneys from the treated and control animals, multiplied by the kidney/body weight ratio.
Blood urea nitrogen (BUN) levels were determined in serum samples derived from animals at sacrifice.

[1] = treated vs control jck mice, p-value<0.05, two-tailed t-test

Structure (SMILES): CCCCCCCCC(=O)N[C@H](CN1CCCC1)[C@H](O)c1ccc2c(c1)OCCO2 [Compound A, N-((1R,2R)-1-(2,3-dihydrobenzo[1,4|]dioxin-6-yl)-1-hydroxy-3-(pyrrolidin-1-yl)propan-2-yl)nonanamide]
- K/BW ratio (%) (female jck mice): 3.57 ± 0.58 %
- Body weight (female jck mice): 15.93 ± 1.65 g
- BUN (female jck mice, serum at sacrifice): 34.67 ± 9.41 mg/dL
- Cystic volume (% BW) (female jck mice): 0.58 ± 0.29 % BW
- cystic disease, as measured by kidney/body weight ratio and cyst volume (in feed at 0.225%, both males and females): statistically significant reduction
- PKD in a mouse model (jck mice): Effectively Inhibited PKD
- K/BW ratio (%) (male jck mice): 4.46 ± 0.46 %
- Body weight (male jck mice): 18.43 ± 1.82 g
- BUN (male jck mice, serum at sacrifice): 39.25 ± 10.70 mg/dL
- Cystic volume (% BW) (male jck mice): 0.88 ± 0.23 % BW
- renal function (treated animals relative to controls, in feed at 0.225%, both males and females): improved renal function
- cyst volume [1]: significant decrease
- kidney weight/body weight ratio [1]: significant difference
- total body weight [1]: statistically significant decrease
- BUN levels (treated vs untreated control jck mice, serum at sacrifice, p-value<0.05, two-tailed t-test): significant reduction
